Source: patent publication US10939684B2, “Preparation of sulfonamide-containing antimicrobials and substrate treating compositions of sulfonamide-containing antimicrobials” (NANO SAFE COATINGS INCORPORATED, priority 2015, dated 2021)
“Also recorded” adds a separate entry of the source.

Columns and labels:
Assay type in all cases: cell-based
[1] = test system: Arthrobacter spp. biofilm cells; assay: Static biofilm test in coated polyethylene test tubes, biofilm cell survival; conditions: for Average / A (cfu) / B (cfu) / C (cfu): biofilm cells, 48 hours; for Average: average of A-C; for A (cfu): replicate A; for B (cfu): replicate B; for C (cfu): replicate C
Description: (§1) The interior of polyethylene test tubes was coated with the sulfonamide QUAT antimicrobial similarly as in Example 32. Tubes were filled with 2.7 mL of growth media (3 g/L TSB) into which 300 μL of Arthrobacter spp. bacterial culture was inoculated. Planktonic cells were sampled after 48 hours of incubation and agitation by removing 100 μL aliquots from each tube. After 48 hours, the liquid in each tube was removed completely so that biofilm attachment to the interior of the tubes could be assessed. To test for biofilm attachment the tubes were first gently rinsed in a saline solution to remove any loosely attached or residual planktonic cells. Next, 1 mL of saline solution was added to each tube before the tubes were vortexed vigorously for 1 minute to transfer biofilm cells to the collection liquid. Plate counts were then performed on serial dilutions of this collection liquid. Planktonic and biofilm colony counts from triplicate coated tubes were averaged and compared to colony counts from tests of uncoated control tubes carried out in parallel. After 14 days of exposure to ambient air, the tubes used in the above test were subjected to a second static biofilm test as described above, without reapplying the antimicrobial. This test was performed to determine whether the antimicrobial effects of the coating persisted following repeated exposures.

[2] = test system: Staphylococcus aureus (S. aureus); assay: Large-droplet inoculation method, antimicrobial efficacy at solid-air interfaces; conditions: for Average / A (cfu) / B (cfu) / C (cfu): S. aureus, treated polyethylene, load 8.30E+05; for Average: average of A-C; for A (cfu): replicate A; for B (cfu): replicate B; for C (cfu): replicate C; for activity against S. aureus (in words): treated polyethylene coupons, compared to untreated control (FIG. 6)
Source text: (§2) Large-droplet inoculation method (Ronan E. et al, Biofouling 2013, 29, 1087-1096) Many pathogens are able to remain viable during extended periods of desiccation on inanimate surfaces. Long-term survival of pathogens in the inanimate environment pose a significant risk for infection transmission and contamination in high-risk environments such as hospital rooms or food-processing plants. The large-droplet inoculation method was developed to simulate the deposition of bacterial species onto exposed surfaces and to determine the ability of these cells to survive desiccation.
(§3) For these tests, small surface coupons were first coated with the antimicrobial using the method described above. Bacterial test species were grown overnight in a shaking incubator and cultures
(§4) were washed twice to replace the growth media with sterile water. 100 μL aliquots of the prepared culture were then inoculated onto multiple coated surfaces and allowed to air-dry within a biological safety cabinet. Drying typically occurred 2-3 hours after inoculation, and surviving cells were enumerated immediately and 24 hours after drying. For enumeration, inoculated coupons were sacrificed in triplicate and placed inside separate tubes containing 5 mL of a 0.9% saline collection liquid. Each coupon was agitated vigorously for 1 minute with a bench-top vortex to transfer cells from the test surface to the collection liquid. Plate counts were then performed on serial dilutions of the collection liquid, and colony counts from triplicate treated surfaces were averaged and compared to colony counts from tests of untreated control surfaces carried out in parallel.
(§5) A range of bacterial species were used in these tests. Arthrobacter spp., a gram-positive lab strain originally isolated from indoor air was used in the bulk of the testing, as it is known to be highly resistant to desiccation and therefore was used as a model for desiccation-tolerant pathogens. Efficacy tests were also carried out against, for example, gram-negative Escherichia coli (E. coli) and gram-positive Staphylococcus aureus (S. aureus), since they all contain pathogenic strains and have been implicated in major nosocomial outbreaks. […] The following are the tabulated bacterial reduction data: […]

Arthrobacter spp. = assay: as above; conditions: treated polystyrene; for Average / A (cfu) / B (cfu) / C (cfu): load 1.28E+08; for Average: average of A-C; for A (cfu): replicate A; for B (cfu): replicate B; for C (cfu): replicate C
Source text: as §2, §3, §4, §5

[3] = test system: Escherichia coli (E. coli); assay: as above; conditions: for Average / A (cfu) / B (cfu) / C (cfu): E. coli, treated polyethylene, load 5.05E+07; for Average: average of A-C; for A (cfu): replicate A; for B (cfu): replicate B; for C (cfu): replicate C; for activity against E. coli (in words): treated polyethylene coupons, compared to untreated control (FIG. 6)
Source text: as §2, §3, §4, §5

[4] = test system: Arthrobacter spp. planktonic cells; assay: Static biofilm test in coated polyethylene test tubes, planktonic cell survival; conditions: 48 hours; for Average / A (cfu) / B (cfu) / C (cfu): planktonic cells; for Average: average of A-C; for A (cfu): replicate A; for B (cfu): replicate B; for C (cfu): replicate C; for activity against planktonic cells (in words): initial test and re-challenge (FIG. 9)
Description: as §1

[5] = initial test, treated polyethylene test tubes, load 7.75E+08
[6] = rechallenge after 14 days without reapplying, load 8.00E+08
[7] = listed as 3-(4-benzoylphenoxy)-N,N-dimethyl-N-(3-(2,4,6-trimethylphenyl sulfonamido)propyl)
[8] = listed as 3-(4-benzoylphenoxy)-N,N-dimethyl-N-(3-(2,4,6-trimethylphenylsulfonamido)propyl)

Compound: Cc1cc(C)c(S(=O)(=O)NCCC[N+](C)(C)CCCOc2ccc(C(=O)c3ccccc3)cc2)c(C)c1.[Br-] [Example 3c, 3-(4-benzoylphenoxy)-N,N-dimethyl-N-(3-(2,4,6-trimethylphenylsulfonamido)propyl)propan-1-aminium bromide]
- Average [1, 5]: 0.00E+00 cfu
- A (cfu) [1, 5]: 0.00E+00 cfu
- B (cfu) [1, 5]: 0.00E+00 cfu
- C (cfu) [1, 5]: 0.00E+00 cfu
- Average [1, 6]: 0.00E+00 cfu
- A (cfu) [1, 6]: 0.00E+00 cfu
- B (cfu) [1, 6]: 0.00E+00 cfu
- C (cfu) [1, 6]: 0.00E+00 cfu
- activity against biofilm cells / biofilm development (in words) ([1]; treated polyethylene test tubes, 48 hours (FIG. 10)): excellent activity
- Average ([2]; 3 hours): 0.00E+00 cfu
- A (cfu) ([2]; 3 hours): 0.00E+00 cfu
- B (cfu) ([2]; 3 hours): 0.00E+00 cfu
- C (cfu) ([2]; 3 hours): 0.00E+00 cfu
- Average ([2]; 24 hours): 0.00E+00 cfu
- A (cfu) ([2]; 24 hours): 0.00E+00 cfu
- B (cfu) ([2]; 24 hours): 0.00E+00 cfu
- C (cfu) ([2]; 24 hours): 0.00E+00 cfu
- activity against S. aureus (in words) [2, 7]: excellent activity
- activity against S. aureus (in words) [2, 8]: eradicated within three hours
- activity against Arthrobacter spp. (in words) (Arthrobacter spp.; compared to untreated control (FIG. 3)): eradicated within three hours; also recorded: excellent activity
- Average (Arthrobacter spp.; 3 hours): 0.00E+00 cfu
- A (cfu) (Arthrobacter spp.; 3 hours): 0.00E+00 cfu
- B (cfu) (Arthrobacter spp.; 3 hours): 0.00E+00 cfu
- C (cfu) (Arthrobacter spp.; 3 hours): 0.00E+00 cfu
- Average (Arthrobacter spp.; 24 hours): 0.00E+00 cfu
- A (cfu) (Arthrobacter spp.; 24 hours): 0.00E+00 cfu
- B (cfu) (Arthrobacter spp.; 24 hours): 0.00E+00 cfu
- C (cfu) (Arthrobacter spp.; 24 hours): 0.00E+00 cfu
- Average ([3]; 3 hours): 0.00E+00 cfu
- A (cfu) ([3]; 3 hours): 0.00E+00 cfu
- B (cfu) ([3]; 3 hours): 0.00E+00 cfu
- C (cfu) ([3]; 3 hours): 0.00E+00 cfu
- Average ([3]; 24 hours): 0.00E+00 cfu
- A (cfu) ([3]; 24 hours): 0.00E+00 cfu
- B (cfu) ([3]; 24 hours): 0.00E+00 cfu
- C (cfu) ([3]; 24 hours): 0.00E+00 cfu
- activity against E. coli (in words) [3, 7]: excellent activity
- activity against E. coli (in words) [3, 8]: eradicated within three hours
- Average [4, 5]: 0.00E+00 cfu
- A (cfu) [4, 5]: 0.00E+00 cfu
- B (cfu) [4, 5]: 0.00E+00 cfu
- C (cfu) [4, 5]: 0.00E+00 cfu
- Average [4, 6]: 0.00E+00 cfu
- A (cfu) [4, 6]: 0.00E+00 cfu
- B (cfu) [4, 6]: 0.00E+00 cfu
- C (cfu) [4, 6]: 0.00E+00 cfu
- activity against planktonic cells (in words) ([4]; treated polyethylene test tubes, listed as 3-(4-benzoylphenoxy)-N,N-dimethyl-N-(3-(2,4,6-trimethylphenyl sulfonamido)propyl)): excellent activity
- activity against planktonic cells (in words) ([4]; treated polyethylene test tubes, listed as 3-(4-benzoylphenoxy)-N,N-dimethyl-N-(3-(2,4,6-trimethylphenylsulfonamido)propyl)): complete eradication
